Values after ≈ are worked out from the molar mass of the structure shown. Like-named read-outs stand apart in the source and are kept apart here.
How the values were obtained:
[1] = tested on: S. cerevisiae AD1-8; test: MIC50 growth inhibition, S. cerevisiae AD1-8 (lacks major ABC transporters), 48 h; format: cell-based, Saccharomyces cerevisiae; settings: for MIC50: Saccharomyces cerevisiae
Excerpt: (§1) The following strains of S. cerevisiae were used in this study: BY4741 (wild type towards erg6Δ, ACC Y00000; MATa; his3Δ1; leu2Δ0; met15Δ0; ura3Δ0), erg6Δ (ACC Y00568; BY4741 isogenic with YML008c::kanMX4), W303 (wild type towards AD1-8; MATα; leu2-3,112 trp1-1 can1-100 ura3-1 ade2-1 his3-11,15 AD1-8 (W303 isogenic with pdr1-3, ura3, his1, yor1∆::hisG, snq2∆::hisG, pdr5∆::hisG, pdr10∆::hisG, pdr11∆:: hisG, ycf1∆::hisG, pdr3∆::hisG, pdr15∆::hisG). BY4741 and erg6Δ were acquired from EUROSCARF, Frankfurt, Germany; W303 and AD1-8 were kind gifts from Prof. A. Goffeau, Chaire Internationale Blaise Pascal, Lab. Genet. Mol., École Normale Supérieure, Paris, and Prof. M. Ghislain, Université Catholique de Louvain, Faculté des sciences Agronomiques, Louvain-la-Neuve, Belgium. Visible turbid overnight cultures of S. cerevisiae strains were prepared and diluted to A600 ≈ 0.1 in fresh Yeast Extract – Peptone - Dextrose (YPD) medium. […] The yeast cultures were statically incubated at 30 °C for 48 hours with compounds[88]. The dose-response curves were analysed with GraphPad Prism 5 software (San Diego, USA) or a microplate reader ASYS UVM (Biogenet). All values presented are the mean of at least three independent experiments.

[2] = tested on: C. albicans DSY1050; test: microbe, parasite or virus in culture; format: cell-based, Candida albicans; settings: for MIC50: Candida albicans, DSY1050, 48 h; for times more susceptible than parental strain (CAF2-1): DSY1050 vs CAF2-1
Excerpt: (§2) The C. albicans CAF2-1 (Genotype/Description: ura3Δ::imm434/URA3[89]) and DSY1050 (Genotype/Description: cdr1Δ::hisG/cdr1Δ::hisG/cdr2Δ::hisG/cdr2Δ::hisG/mdr1Δ::hisG-URA3-hisG/mdr1Δ::hisG[90]) strains used in this study were generous gift from D. Sanglard (Lausanne, Switzerland)[91],[92] whereas C. albicans B3 and Gu4 (Genotype/Description: clinical isolates fluconazole sensitive)[93]), B4 (Genotype/Description: Clinical isolate fluconazole resistant due to the overexpression of MDR1[93]) and Gu5 (Genotype/Description: Clinical isolate fluconazole resistant due to the overexpression of CDR1 and CDR2[93]) were a generous gift from prof. S. Milewski (Gdańsk, Poland)[94] and prof. J. Morschhäuser (Wurzburg, Germany)[93]. All strains were grown at 37 °C on Sabouraud medium (Biomerieux).
(§3) The antifungal activity was determined on the 96-well polystyrene microtiter plates (Sarstedt) according to Clinical and Laboratory Standards Institute M27-A3[95]. […] The compounds were dissolved in DMSO (10 mM) and then serially diluted in RPMI-1640 (ThermoFisher) medium to obtain the final concentration range. Inocula of all strains were prepared as suspensions with turbidity of 0.5 McFarland standard in sterile 0.85% saline and diluted in RPMI-1640. After inoculation, each well contained appr. 5 × 10^2 CFU/mL. The plates were cultivated for 48 h at 37 °C. Optical density was measured at A490nm using a microplate reader ASYS UVM 340 (Biogenet).

[3] = tested on: C. albicans Gu5; test: microbe, parasite or virus in culture; format: cell-based, Candida albicans; settings: for times more resistant than Gu4 strain: Gu5 vs Gu4
Excerpt: as §2, §3

[4] = tested on: C. albicans CAF2-1; test: microbe, parasite or virus in culture; format: cell-based, Candida albicans; settings: for times more active than Flc: C. albicans CAF2-1, MIC50 ratio; for MIC50: Candida albicans, CAF21, 48 h
Excerpt: as §2, §3

[5] = tested on: C. albicans B4; test: microbe, parasite or virus in culture; format: cell-based, Candida albicans; settings: for times higher resistance of B4 than B3: B4 vs B3; for MIC50: Candida albicans, B4, 48 h
Excerpt: as §2, §3

[6] = tested on: S. cerevisiae erg6Δ; test: MIC50 growth inhibition, S. cerevisiae erg6Δ deletion mutant, 48 h; format: cell-based, Saccharomyces cerevisiae
Excerpt: For the preliminary studies of the biological activity of the studied compound we chose S. cerevisiae, which is generally considered a non-pathogenic organism, but currently recognized as a potentially important agent causing opportunistic infections against immunocompromised patients. In order to assess whether all the Ke derivatives share the mechanism of action with the parent compound, or if they might present different or additional modes of action, the inhibitory concentration MIC50 (Table 2) was determined on the basis of the dose-response curves (Fig. S11 in ESI) in a 48 h assay against S. cerevisiae wt strain BY4741 and the deletion mutant erg6Δ, which lacks the gene coding for the S-adenosylmethionine: 24-methyltransferase[52], accumulating cholesta-5,7,24-trienol and zymosterol instead of ergosterol. There are several studies reporting that the ERG6 gene deletion may increase the resistance of S. cerevisiae cells to azole compounds[54]–[56]. […] The value determined for the wt strain is in very good agreement with previous studies carried out under similar condition (48 h, 30 °C) (e.g.[57]).
The following strains of S. cerevisiae were used in this study: BY4741 (wild type towards erg6Δ, ACC Y00000; MATa; his3Δ1; leu2Δ0; met15Δ0; ura3Δ0), erg6Δ (ACC Y00568; BY4741 isogenic with YML008c::kanMX4), W303 (wild type towards AD1-8; MATα; leu2-3,112 trp1-1 can1-100 ura3-1 ade2-1 his3-11,15 AD1-8 (W303 isogenic with pdr1-3, ura3, his1, yor1∆::hisG, snq2∆::hisG, pdr5∆::hisG, pdr10∆::hisG, pdr11∆:: hisG, ycf1∆::hisG, pdr3∆::hisG, pdr15∆::hisG). BY4741 and erg6Δ were acquired from EUROSCARF, Frankfurt, Germany; W303 and AD1-8 were kind gifts from Prof. A. Goffeau, Chaire Internationale Blaise Pascal, Lab. Genet. Mol., École Normale Supérieure, Paris, and Prof. M. Ghislain, Université Catholique de Louvain, Faculté des sciences Agronomiques, Louvain-la-Neuve, Belgium. Visible turbid overnight cultures of S. cerevisiae strains were prepared and diluted to A600 ≈ 0.1 in fresh Yeast Extract – Peptone - Dextrose (YPD) medium. The cultures were transferred to 96 microtiter well plates containing aliquots of serially diluted antifungal drugs (Ke and its derivatives: KeP, KeOP, KeSP, KeSeP), prepared from DMS stock solutions and drug-free controls. The yeast cultures were statically incubated at 30 °C for 48 hours with compounds[88]. The dose-response curves were analysed with GraphPad Prism 5 software (San Diego, USA) or a microplate reader ASYS UVM (Biogenet). All values presented are the mean of at least three independent experiments.

[7] = tested on: C. albicans B3; test: microbe, parasite or virus in culture; format: cell-based; settings: Candida albicans
Excerpt: as §2, §3

[8] = tested on: C. albicans Gu4; test: microbe, parasite or virus in culture; format: cell-based; settings: Candida albicans, GU4, 48 h
Excerpt: as §2, §3

[9] = tested on: S. cerevisiae WT (W303); test: MIC50 growth inhibition, S. cerevisiae wt W303, 48 h; format: cell-based; settings: Saccharomyces cerevisiae
Excerpt: as §1

[10] = AD18, S. cerevisiae AD1-8, YPD, 30 °C, 48 h, read-out: MIC50
[11] = C. albicans B3, RPMI-1640, 37 °C, 48 h, read-out: MIC50
[12] = S. cerevisiae WT (W303), YPD, 30 °C, read-out: MIC50
[13] = S. cerevisiae erg6Δ, YPD, 30 °C
[14] = C. albicans Gu5, RPMI-1640, 37 °C, 48 h

| SMILES | MIC50 [1, 10] [µM] | MIC50 [2] [µM] | times more susceptible than parental strain (CAF2-1) [2] | MIC50 ([3]; Candida albicans, GU5, 48 h) [µM] | times more resistant than Gu4 strain [3] | times more active than Flc [4] | MIC50 [4] [µM] | times higher resistance of B4 than B3 [5] | MIC50 [5] [µM] | MIC50 ([6]; Saccharomyces cerevisiae) [µM] | MIC50 [7, 11] [µM] | MIC50 [8] [µM] | MIC50 [9] [µM] | MIC50 [9, 12] [µM] | MIC50 ([1]; AD18, 48 h) [µM] | MIC50 [6, 13] | MIC50 ([7]; B3, 48 h) [µM] | MIC50 against AD1-8 lower than against W303 cells ([1]; AD1-8 vs W303) | MIC50 [3, 14] |
| --- | --- | --- | --- | --- | --- | --- | --- | --- | --- | --- | --- | --- | --- | --- | --- | --- | --- | --- | --- |
| O=P(CN1CCN(c2ccc(OC[C@H]3CO[C@](Cn4ccnc4)(c4ccc(Cl)cc4Cl)O3)cc2)CC1)(c1ccccc1)c1ccccc1 (racemic) [KeOP, Ph2P(O)CH2-Ke] | 0.05 (≈ 0.0352 µg/mL) | 0.2 (≈ 0.141 µg/mL) | four | 25 (≈ 17.6 µg/mL) | two | eight | 0.78 (≈ 0.549 µg/mL) | two | 3.13 (≈ 2.2 µg/mL) | 0.00482 (≈ 0.00339 µg/mL) | 1.56 (≈ 1.1 µg/mL) | 12.5 (≈ 8.8 µg/mL) | 3.13 (≈ 2.2 µg/mL) | – | – | – | – | – | – |
| Clc1ccc([C@@]2(Cn3ccnc3)OC[C@H](COc3ccc(N4CCN(CP(c5ccccc5)c5ccccc5)CC4)cc3)O2)c(Cl)c1 (racemic) [KeP, Ph2PCH2-Ke] | 0.2 (≈ 0.138 µg/mL) | 0.78 (≈ 0.536 µg/mL) | four | 50 (≈ 34.4 µg/mL) | sixteen | two | 3.13 (≈ 2.15 µg/mL) | eight | 3.13 (≈ 2.15 µg/mL) | 0.654 (≈ 0.45 µg/mL) | 0.39 (≈ 0.268 µg/mL) | 3.13 (≈ 2.15 µg/mL) | – | 12.5 (≈ 8.6 µg/mL) | – | – | – | – | – |
| CC(=O)N1CCN(c2ccc(OCC3COC(Cn4ccnc4)(c4ccc(Cl)cc4Cl)O3)cc2)CC1 (stereo not shown) [Ke, ketoconazole, reference compound] | – | 0.02 (≈ 0.0106 µg/mL) | – | 50 (≈ 26.6 µg/mL) | – | – | 0.05 (≈ 0.0266 µg/mL) | – | 0.39 (≈ 0.207 µg/mL) | > 200 | – | 25 (≈ 13.3 µg/mL) | – | 6.25 (≈ 3.32 µg/mL) | 0.02 (≈ 0.0106 µg/mL) | no activity | 0.05 (≈ 0.0266 µg/mL) | – | – |
| S=P(CN1CCN(c2ccc(OC[C@H]3CO[C@](Cn4ccnc4)(c4ccc(Cl)cc4Cl)O3)cc2)CC1)(c1ccccc1)c1ccccc1 [KeSP, Ph2P(S)CH2-Ke] | – | 0.39 (≈ 0.281 µg/mL) | eight | > 200 | – | two | 3.13 (≈ 2.25 µg/mL) | two | 3.13 (≈ 2.25 µg/mL) | > 200 | 1.56 (≈ 1.12 µg/mL) | 50 (≈ 36 µg/mL) | > 200 | – | 0.2 (≈ 0.144 µg/mL) | inactive | – | more than 3 orders of magnitude | no inhibitory effect |
| Clc1ccc([C@@]2(Cn3ccnc3)OC[C@H](COc3ccc(N4CCN(CP(=[Se])(c5ccccc5)c5ccccc5)CC4)cc3)O2)c(Cl)c1 [KeSeP, Ph2P(Se)CH2-Ke] | 0.2 (≈ 0.153 µg/mL) | 0.78 (≈ 0.598 µg/mL) | four | > 200 | – | two | 3.13 (≈ 2.4 µg/mL) | two | 6.25 (≈ 4.79 µg/mL) | 0.578 (≈ 0.443 µg/mL) | 3.13 (≈ 2.4 µg/mL) | 12.5 (≈ 9.58 µg/mL) | – | 50 (≈ 38.3 µg/mL) | – | – | – | – | no inhibitory effect |
